Assay results published in US6037361A, “Fluorinated butyric acids and their derivatives as inhibitors of matrix metalloproteinases” (Warner-Lambert Company, priority 1998, dated 2000).

Columns and labels:
[1] = system: human ovarian carcinoma xenografts; conditions: mice bearing human ovarian carcinoma xenografts; cited from earlier work
[2] = molecular target: GCD (recombinant gelatinase A catalytic domain); experiment: IC50 versus GCD with thiopeptolide substrate Ac-Pro-Leu-Gly-thioester-Leu-Leu-Gly-OEt; assay type: biochemical
Procedure: (§1) Experiments were carried out with the catalytic domains of the proteinases. […] IC50 values were determined using a thiopeptolide substrate, Ac-Pro-Leu-Gly-thioester-Leu-Leu-Gly-OEt (Ye Q. -Z., Johnson L. L., Hupe D. J., and Baragi V., "Purification and Characterization of the Human Stromelysin Catalytic Domain Expressed in Escherichia coli", Biochemistry, 1992;31:11231-11235).

[3] = molecular target: T1, SCD (stromelysin-1 catalytic domain) (Homo sapiens, UniProt P08254); experiment: IC50 versus SCD with thiopeptolide substrate Ac-Pro-Leu-Gly-thioester-Leu-Leu-Gly-OEt; assay type: biochemical
T1 construct: SCD (stromelysin-1 catalytic domain); made in house; host or cells: Escherichia coli
Procedure: as §1

[4] = system: bovine nasal and pig articular cartilage; conditions: bovine nasal and pig articular cartilage models for arthritis; cited from earlier work

T1 sequence (P08254 100-272 limits assumed): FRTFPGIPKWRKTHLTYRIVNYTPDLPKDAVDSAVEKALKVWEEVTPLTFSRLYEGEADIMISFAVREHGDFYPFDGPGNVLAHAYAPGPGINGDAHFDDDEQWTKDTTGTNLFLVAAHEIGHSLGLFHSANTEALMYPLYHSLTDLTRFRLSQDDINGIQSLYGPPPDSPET

IC50 [2] | IC50 [3] | Compound | tumor burden and survival [1] | formation of collagen fragments and proteoglycan fragments [4]
– | – | CNC(=O)[C@H](Cc1ccccc1)NC(=O)[C@H](CC(C)C)[C@H](CSc1cccs1)C(=O)NO [BB-94] | decreased the tumor burden and prolonged the survival | –
1.95 µM | 24 µM | O=C(O)CC(F)(F)C(=O)c1ccc2oc3ccccc3c2c1 [Example 1, 4-Dibenzofuran-2-yl-3,3-difluoro-4-oxo-butyric acid] | – | –
93.6 µM | > 100 µM | O=C(CC(F)(F)C(=O)O)c1ccc2oc3ccccc3c2c1 [Example 2, 4-Dibenzofuran-2-yl-2,2-difluoro-4-oxo-butric acid] | – | –
– | – | TIMP-1: natural endogenous inhibitors of MMPs (TIMPs) | – | prevented the formation of collagen fragments, but not proteoglycan fragments
